Tests used:
Type in all cases: in vivo
[1] = test system: foxtail, giant (giant foxtail, Setaria faberii); test: Test A preemergence, foxtail, giant; conditions: 0 to 100 scale, 0 no effect, 100 complete control
Summary of the method: (§1)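 Visual injury scores (0 = no effect, 100 = complete control) were assigned roughly 10 d after treatment by comparison with untreated controls. Chemicals, formulated in a non-phytotoxic solvent mixture containing surfactant, were applied as a preemergence directed soil spray or postemergence to one- to two-leaf plants 2 to 10 cm tall.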

[2] = test system: barnyardgrass (Echinochloa crus-galli); test: Test A postemergence, barnyardgrass; conditions: 0 to 100 scale, 0 no effect, 100 complete control
Summary of the method: as §1

[3] = test system: foxtail, giant (giant foxtail, Setaria faberii); test: Test A postemergence, foxtail, giant; conditions: 0 to 100 scale, 0 no effect, 100 complete control
Summary of the method: as §1

[4] = test system: morningglory (Ipomoea spp.); test: Test A preemergence, morningglory; conditions: 1000 g ai/ha, 0 to 100 scale, 0 no effect, 100 complete control
Text: (§2) Seeds of plant species selected from barnyardgrass (Echinochloa crus-galli), crabgrass, large (large crabgrass, Digitaria sanguinalis), kochia (Kochia scoparia), ragweed (common ragweed, Ambrosia elatior), morningglory (Ipomoea spp.), velvetleaf (Abutilon theophrasti), ryegrass, Italian (Italian ryegrass, Lolium multiflorum), foxtail, giant (giant foxtail, Setaria faberii), wheat (Triticum aestivum), corn (Zea mays), and pigweed (Amaranthus retroflexus), were planted into a blend of loam soil and sand and treated preemergence with a directed soil spray using test chemicals formulated in a non-phytotoxic solvent mixture which included a surfactant. At the same time, plants selected from these crop and weed species and also blackgrass (Alopecurus myosuroides), and galium (catchweed bedstraw, Galium aparine), were planted in pots containing the same blend of loam soil and sand and treated with postemergence applications of test chemicals formulated in the same manner. Plants ranged in height from 2 to 10 cm and were in the one- to two-leaf stage for the postemergence treatment. Treated plants and untreated controls were maintained in a greenhouse for approximately 10 d, after which time all treated plants were compared to untreated controls and visually evaluated for injury. Plant response ratings, summarized in Table A, are based on a 0 to 100 scale where 0 is no effect and 100 is complete control. A dash (-) response means no test result.

corn (Zea mays) [5] = test: Test A postemergence, corn; conditions: 0 to 100 scale, 0 no effect, 100 complete control
Summary of the method: as §1

[6] = test system: velvetleaf (Abutilon theophrasti); test: Test A postemergence, velvetleaf; conditions: 1000 g ai/ha, 0 to 100 scale, 0 no effect, 100 complete control
Text: as §2

[7] = test system: velvetleaf (Abutilon theophrasti); test: Test A preemergence, velvetleaf; conditions: 1000 g ai/ha, 0 to 100 scale, 0 no effect, 100 complete control
Text: as §2

[8] = test system: crabgrass, large (large crabgrass, Digitaria sanguinalis); test: Test A preemergence, crabgrass, large; conditions: 1000 g ai/ha, 0 to 100 scale, 0 no effect, 100 complete control
Text: as §2

[9] = test system: morningglory (Ipomoea spp.); test: Test A postemergence, morningglory; conditions: 1000 g ai/ha, 0 to 100 scale, 0 no effect, 100 complete control
Text: as §2

[10] = test system: pigweed (Amaranthus retroflexus); test: Test A postemergence, pigweed; conditions: 0 to 100 scale, 0 no effect, 100 complete control
Summary of the method: as §1

[11] = test system: pigweed (Amaranthus retroflexus); test: Test A preemergence, pigweed; conditions: 0 to 100 scale, 0 no effect, 100 complete control
Summary of the method: as §1

[12] = test system: barnyardgrass (Echinochloa crus-galli); test: Test A preemergence, barnyardgrass; conditions: 0 to 100 scale, 0 no effect, 100 complete control
Summary of the method: as §1

corn (Zea mays) [13] = test: Test A preemergence, corn; conditions: 1000 g ai/ha, 0 to 100 scale, 0 no effect, 100 complete control
Text: as §2

[14] = test system: wheat (Triticum aestivum); test: Test A postemergence, wheat; conditions: 0 to 100 scale, 0 no effect, 100 complete control
Summary of the method: as §1

[15] = test system: wheat (Triticum aestivum); test: Test A preemergence, wheat; conditions: 1000 g ai/ha, 0 to 100 scale, 0 no effect, 100 complete control
Text: as §2

[16] = test system: crabgrass, large (large crabgrass, Digitaria sanguinalis); test: Test A postemergence, crabgrass, large; conditions: 1000 g ai/ha, 0 to 100 scale, 0 no effect, 100 complete control
Text: as §2

[17] = test system: ryegrass, Italian (Italian ryegrass, Lolium multiflorum); test: Test A preemergence, ryegrass, Italian; conditions: 0 to 100 scale, 0 no effect, 100 complete control
Summary of the method: as §1

[18] = test system: ryegrass, Italian (Italian ryegrass, Lolium multiflorum); test: Test A postemergence, ryegrass, Italian; conditions: 0 to 100 scale, 0 no effect, 100 complete control
Summary of the method: as §1

[19] = test system: ragweed (common ragweed, Ambrosia elatior); test: Test A postemergence, ragweed; conditions: 0 to 100 scale, 0 no effect, 100 complete control
Summary of the method: as §1

[20] = test system: barnyardgrass (Echinochloa crus-galli); test: Test B flooded paddy test, barnyardgrass; conditions: Flood, scale 0 to 100 (0 no effect, 100 complete control), 13 to 15 d
Summary of the method: (§3)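 Ratings use a 0-100 visual scale, where 100 is complete control, and compare treated plants with controls after 13 to 15 d of greenhouse growth. Compound went straight into paddy water kept 3 cm over the soil surface, applied to seedlings at the 2-leaf stage.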

[21] = test system: galium (catchweed bedstraw, Galium aparine); test: Test A postemergence, galium; conditions: 0 to 100 scale, 0 no effect, 100 complete control
Summary of the method: as §1

kochia (Kochia scoparia) [22] = test: Test A preemergence, kochia; conditions: 0 to 100 scale, 0 no effect, 100 complete control
Summary of the method: as §1

[23] = test system: blackgrass (Alopecurus myosuroides); test: Test A postemergence, blackgrass; conditions: 0 to 100 scale, 0 no effect, 100 complete control
Summary of the method: as §1

[24] = test system: sedge, umbrella (small-flower umbrella sedge, Cyperus difformis); test: Test B flooded paddy test, sedge, umbrella; conditions: Flood, scale 0 to 100 (0 no effect, 100 complete control), 13 to 15 d
Summary of the method: as §3

[25] = test system: ragweed (common ragweed, Ambrosia elatior); test: Test A preemergence, ragweed; conditions: 0 to 100 scale, 0 no effect, 100 complete control
Summary of the method: as §1

[26] = test system: ducksalad (Heteranthera limosa); test: Test B flooded paddy test, ducksalad; conditions: Flood, scale 0 to 100 (0 no effect, 100 complete control), 13 to 15 d
Summary of the method: as §3

rice (Oryza sativa) = test: Test B flooded paddy test, rice; conditions: Flood, scale 0 to 100 (0 no effect, 100 complete control), 13 to 15 d
Summary of the method: as §3

kochia (Kochia scoparia) [27] = test: Test A postemergence, kochia; conditions: 0 to 100 scale, 0 no effect, 100 complete control
Summary of the method: as §1

SMILES: O=C1NCC(c2ccccc2)N1C(=O)Nc1ccccc1 (stereo not shown) [Compound 6]
- Plant response rating, Foxtail, Giant ([1]; 1000 g ai/ha): 0
- Plant response rating, Barnyardgrass ([2]; 1000 g ai/ha): 0
- Plant response rating, Foxtail, Giant ([3]; 1000 g ai/ha): 0
- Plant response rating, Morningglory [4]: 0
- Plant response rating, Corn (corn (Zea mays) [5]; 1000 g ai/ha): 0
- Plant response rating, Velvetleaf [6]: 0
- Plant response rating, Velvetleaf [7]: 0
- Plant response rating, Crabgrass, Large [8]: 50
- Plant response rating, Morningglory [9]: 0
- Plant response rating, Pigweed ([10]; 1000 g ai/ha): 0
- Plant response rating, Pigweed ([11]; 1000 g ai/ha): 0
- Plant response rating, Barnyardgrass ([12]; 1000 g ai/ha): 0
- Plant response rating, Corn (corn (Zea mays) [13]): 0
- Plant response rating, Wheat ([14]; 1000 g ai/ha): 0
- Plant response rating, Wheat [15]: 0
- Plant response rating, Crabgrass, Large [16]: 0

SMILES: O=C1NCC(c2ccccc2)N1C(=O)Nc1cccc(F)c1F (stereo not shown) [Compound 12, N-(2,3-difluorophenyl)-2-oxo-5-phenyl-1-imidazolidinecarboxamide]
- Plant response rating, Ryegrass, Italian ([17]; 125 g ai/ha): 0
- Plant response rating, Ryegrass, Italian ([17]; 500 g ai/ha): 0
- Plant response rating, Ryegrass, Italian ([18]; 125 g ai/ha): 0
- Plant response rating, Ryegrass, Italian ([18]; 500 g ai/ha): 0
- Plant response rating, Ragweed ([19]; 125 g ai/ha): 0
- Plant response rating, Ragweed ([19]; 500 g ai/ha): 0
- Plant response rating, Foxtail, Giant ([1]; 125 g ai/ha): 60
- Plant response rating, Foxtail, Giant ([1]; 500 g ai/ha): 90
- Plant response rating, Barnyardgrass ([2]; 125 g ai/ha): 60
- Plant response rating, Barnyardgrass ([2]; 500 g ai/ha): 90
- Plant response rating, Foxtail, Giant ([3]; 125 g ai/ha): 80
- Plant response rating, Foxtail, Giant ([3]; 500 g ai/ha): 80
- Plant response rating, Barnyardgrass ([20]; 1000 g ai/ha): 0
- Plant response rating, Galium ([21]; 125 g ai/ha): 0
- Plant response rating, Galium ([21]; 500 g ai/ha): 0
- Plant response rating, Corn (corn (Zea mays) [5]; 125 g ai/ha): 0
- Plant response rating, Corn (corn (Zea mays) [5]; 500 g ai/ha): 0
- Plant response rating, Kochia (kochia (Kochia scoparia) [22]; 125 g ai/ha): 0
- Plant response rating, Kochia (kochia (Kochia scoparia) [22]; 500 g ai/ha): 20
- Plant response rating, Pigweed ([10]; 125 g ai/ha): 0
- Plant response rating, Pigweed ([10]; 500 g ai/ha): 0
- Plant response rating, Blackgrass ([23]; 125 g ai/ha): 0
- Plant response rating, Blackgrass ([23]; 500 g ai/ha): 0
- Plant response rating, Sedge, Umbrella ([24]; 1000 g ai/ha): 0
- Plant response rating, Pigweed ([11]; 125 g ai/ha): 0
- Plant response rating, Pigweed ([11]; 500 g ai/ha): 0
- Plant response rating, Barnyardgrass ([12]; 125 g ai/ha): 20
- Plant response rating, Barnyardgrass ([12]; 500 g ai/ha): 50
- Plant response rating, Wheat ([14]; 125 g ai/ha): 0
- Plant response rating, Wheat ([14]; 500 g ai/ha): 0
- Plant response rating, Ragweed ([25]; 125 g ai/ha): 0
- Plant response rating, Ragweed ([25]; 500 g ai/ha): 0
- Plant response rating, Ducksalad ([26]; 1000 g ai/ha): 90
- Plant response rating, Rice (rice (Oryza sativa); 1000 g ai/ha): 0
- Plant response rating, Kochia (kochia (Kochia scoparia) [27]; 125 g ai/ha): 0
- Plant response rating, Kochia (kochia (Kochia scoparia) [27]; 500 g ai/ha): 0

SMILES: O=C1NCC(c2ccc(F)c(F)c2)N1C(=O)Nc1ccccc1F (stereo not shown) [Compound 8]
- Plant response rating, Ryegrass, Italian ([17]; 125 g ai/ha): 0
- Plant response rating, Ryegrass, Italian ([17]; 500 g ai/ha): 0
- Plant response rating, Ryegrass, Italian ([18]; 125 g ai/ha): 0
- Plant response rating, Ryegrass, Italian ([18]; 500 g ai/ha): 0
- Plant response rating, Ragweed ([19]; 125 g ai/ha): 0
- Plant response rating, Ragweed ([19]; 500 g ai/ha): 0
- Plant response rating, Foxtail, Giant ([1]; 125 g ai/ha): 0
- Plant response rating, Foxtail, Giant ([1]; 500 g ai/ha): 0
- Plant response rating, Barnyardgrass ([2]; 125 g ai/ha): 0
- Plant response rating, Barnyardgrass ([2]; 500 g ai/ha): 0
- Plant response rating, Foxtail, Giant ([3]; 125 g ai/ha): 0
- Plant response rating, Foxtail, Giant ([3]; 500 g ai/ha): 0
- Plant response rating, Barnyardgrass ([20]; 500 g ai/ha): 0
- Plant response rating, Galium ([21]; 125 g ai/ha): 0
- Plant response rating, Galium ([21]; 500 g ai/ha): 0
- Plant response rating, Corn (corn (Zea mays) [5]; 125 g ai/ha): 0
- Plant response rating, Corn (corn (Zea mays) [5]; 500 g ai/ha): 0
- Plant response rating, Kochia (kochia (Kochia scoparia) [22]; 125 g ai/ha): 0
- Plant response rating, Kochia (kochia (Kochia scoparia) [22]; 500 g ai/ha): 0
- Plant response rating, Pigweed ([10]; 125 g ai/ha): 0
- Plant response rating, Pigweed ([10]; 500 g ai/ha): 0
- Plant response rating, Blackgrass ([23]; 125 g ai/ha): 0
- Plant response rating, Blackgrass ([23]; 500 g ai/ha): 0
- Plant response rating, Sedge, Umbrella ([24]; 500 g ai/ha): 0
- Plant response rating, Pigweed ([11]; 125 g ai/ha): 0
- Plant response rating, Pigweed ([11]; 500 g ai/ha): 0
- Plant response rating, Barnyardgrass ([12]; 125 g ai/ha): 0
- Plant response rating, Barnyardgrass ([12]; 500 g ai/ha): 0
- Plant response rating, Wheat ([14]; 125 g ai/ha): 0
- Plant response rating, Wheat ([14]; 500 g ai/ha): 0
- Plant response rating, Ragweed ([25]; 125 g ai/ha): 0
- Plant response rating, Ragweed ([25]; 500 g ai/ha): 0
- Plant response rating, Ducksalad ([26]; 500 g ai/ha): 40
- Plant response rating, Rice (rice (Oryza sativa); 500 g ai/ha): 0
- Plant response rating, Kochia (kochia (Kochia scoparia) [27]; 125 g ai/ha): 0
- Plant response rating, Kochia (kochia (Kochia scoparia) [27]; 500 g ai/ha): 0
